The source of these data is patent publication US12240870B2, “Sequencing method for CAR T cell therapy” (Purdue Research Foundation, priority 2018, dated 2025).

In one data set the target is T1, FRα (KB) (Homo sapiens, UniProt P15328).
T1 construct: endogenous in cells; host or cells: KB cells
The data set can be described thus: 3H-EC17 cell-based radioligand binding assay on KB cells. Conditions: 2 h at 37° C. The procedure:
FIG. 10, Panel A: Kd values of ^3H-EC17 uptake by FR+ target cells after a 2 hour incubation at 37° C. (calculated from the numbers of molecules bound per cell). Panel B: Kd value of ^3H^−EC17 uptake by E2-CAR-T cells (˜24% EGFRt+, ˜95:5 CD8/CD4 ratio) after a 2 hour incubation at room temperate (calculated from total cell-associated radioactivity, DPM).
The bispecific affinities of EC17 CAM (a CAM is equivalent to a “bridge” or the “compound” in this application) were assessed using ^3H-EC17 in cell-based radioligand binding assays. […] The whole cell lysates were quantitated for the level of radioactivity and cellular protein content by standard Pierce BCA protein assay. The number of ^3H-EC17 molecules bound per cell was calculated to determine the dissociation constants (Kd) for FRα (KB) and FRβ (CHO-β) respectively (FIG. 10).
The EC17 has already been tested in the clinic for immunotherapy and optical imaging purposes. To directly quantify its bispecific binding affinities, ^3H-EC17 was synthesized and radioligand binding assays were carried out on KB and CHO-β cell lines representing FRα+ and FRβ+ target cells, respectively, and on unsorted EGFRt CAR-T cells representing the effector cells.

A further data set deals with MDA-MB-231 xenografts. The data set can be described thus: EC17 dose finding and CRS assessment in MDA-MB-231 tumor-bearing mice. It counts as in vivo. The note with it: for human IFNγ in mouse plasma, fold over tumor-bearing mice with CAR-T cells only: all EC17 treated tumor cohorts. An excerpt: Panel A: Schematic diagram to show dose scheduling of CAR-T cells (˜10 million “clinical facsimile”) plus EC17 dosed 3 different ways in NSG mice without or with pre-established MDA-MB-231 xenografts. Tumor-free mice received EC17 SIW 500 nmol/kg (2 doses on days 2 and 10). Tumor-bearing mice received EC17 as follows: EC17 SIW 500 nmol/kg (5 doses on days 2, 10, 17, 24, and 31), EC17 M/Th/M_Escalation-1 (repeats of 5/50/500 nmol/kg on Monday/Thursday/Monday followed by 1-week break, i,e. on days 2, 6, 10, 17, 20, 24, and 31), or EC17 M/Th/M_Escalation-2 (repeats of 5/100/1000 nmol/kg on Monday/Thursday/Monday followed by 1-week break, i.e. days 2, 6, 10, 17, 20, 24, and 31). Panel B: Systemic levels of human IFNγ on a log 2 scale detected in mouse plasma on days 11 and 12 after CAR-T cell injection in tumor-bearing versus tumor-free mice (i.e., ˜20 and 42 hours after the previous EC17 dose in all treated cohorts). Panel C: Circulating CAR-T cells in mouse blood identified as human CD3ε+ EGFRt+ events by flow cytometry and enumerated per 100 μL of whole blood. Panel D: Measurements of change in body weight and tumor volume in tumor-bearing mice that received CAR-T cells only or CAR-T cells plus EC17 dosed 3 different ways (dashed lines indicated each EC17 dose). n=5 mice per group. All data represent mean±s.e.m. * p<0.05 by one-way ANOVA test.
All animal care and use were performed according to NIH guidelines and in compliance with protocols approved by the Purdue University Animal Use and Care Committee. Female 4 to 5-week-old NOD/SCID gamma (NSG™) mice (stock number: 005557) were purchased from The Jackson Laboratory (Bar Harbor, ME). Unless specifically indicated, all animals were maintained on a FA-deficient diet (TestDiet, St. Louis, MO) upon arrival and throughout the study. To establish subcutaneous xenografts, MDA-MB-231 and HOS-FRα were implanted in the right flank region at 2.5×10^6 and 1×10^6 cells per animal, respectively. For intravenous xenografts, THP1-FRβ cells were inoculated at 5×10^6 cells per animal. Subcutaneous tumors were measured 2-3 times per week with a caliper and calculated using the ellipsoidal formula (length×width^2)/2. […] All animal doses (CAR-T cells, EC17, sodium fluorescein) were given intravenously.
In a therapeutic setting, EC17 CAM can be given before or after CAR-T cell injection. As described herein, the first dose of EC17 was administered 2-3.5 days after CAR-T cells to allow for an observation period of human T cells in tumor-bearing mice. Two batches of unsorted E2-CAR-T cells (23% or 39% EGFRt+, 1:1 CD4/CD8) were used for in vivo studies. On the day of infusion for each experiment (day 0), frozen CAR-T cells were quickly thawed at 37° C., washed 2× with Dulbecco's 1×PBS (pH 7.4) and injected into the tail vein at desired EGFRt+ E2-CAR-T cell doses. In addition, a small aliquot of CAR-T cells was analyzed by flow cytometry for CD4 to CD8 ratio and differentiation status of CAR-T cells. On the first day of EC17 dose, tumor-bearing animals were randomly assigned into groups according to their tumor sizes or the same number of days post intravenous implantation (i.e., THP1-FRβ).
For MDA-MB-231 studies, mice received a high dose (˜10 million) of a “clinical facsimile” of E2-CAR-T cells (˜39% EGFRt+) with a low differentiation profile (FIG. 9). Two days later, 3 different treatment regimens of EC17 were started at an average tumor size of ˜293±39 mm^3 (FIG. 12). The EC17 dosing was given once-a-week (SIW) at 500 nmol/kg on Mondays, or as escalating doses of 5, 50 or 100, and 500 or 1000 nmol/kg (i.e., 5/50/500 or 5/100/1000) on Monday, Thursday, and Monday with a 6-day break in-between cycles. Control mice were left untreated (received CAR-T cells but no EC17). For comparison, a cohort of tumor-free littermates also received the same number of CAR-T cells without or with EC17 SIW at 500 nmol/kg. […]

pKd: −log10 of the molar value.

T1 sequence (P15328 25-234): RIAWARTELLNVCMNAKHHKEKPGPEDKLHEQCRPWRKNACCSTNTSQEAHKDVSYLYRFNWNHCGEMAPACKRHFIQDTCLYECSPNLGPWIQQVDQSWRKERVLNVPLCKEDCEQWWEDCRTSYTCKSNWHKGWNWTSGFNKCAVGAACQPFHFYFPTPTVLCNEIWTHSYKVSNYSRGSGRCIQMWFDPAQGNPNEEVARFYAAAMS

For `Nc1nc2ncc(CNc3ccc(C(=O)N[C@@H](CCC(=O)NCCNC(=S)Nc4ccc(-c5c6ccc(=O)cc-6oc6cc(O)ccc56)c(C(=O)O)c4)C(=O)O)cc3)nc2c(=O)[nH]1` [EC17, FA-(γ)-ethylenediamine-FITC], on FRα (KB), the pKd was 8.77. Moreover, the cures in the data set with MDA-MB-231 xenografts (EC17-treated cohorts (SIW, Escalation-1, Escalation-2)) stood at 100%. Further, the body weight loss entry in the data set on MDA-MB-231 xenografts (EC17 Escalation-2 regimen 5/100/1000 nmol/kg M/Th/M) is “persistent body weight loss”; with MDA-MB-231 xenografts (tumor-bearing cohorts, continued EC17 dosing independent of the regimen), “significant body weight losses”. In addition, the “onset of CRS and body weight loss” value in the data set with MDA-MB-231 xenografts (EC17 SIW at 500 nmol/kg) is “earliest onset of CRS and body weight loss”. In addition, the “human IFNγ in mouse plasma, fold over tumor-bearing mice with CAR-T cells only” value was around 30 × with MDA-MB-231 xenografts (day 11 (~20 hours after previous EC17 dose), ~10 million CAR-T) and around 10 × in the data set on MDA-MB-231 xenografts (day 12 (~42 hours after previous EC17 dose), ~10 million CAR-T). For the same molecule, the CRS grade with MDA-MB-231 xenografts (tumor-bearing cohorts, continued EC17 dosing independent of the regimen, ~10 million CAR-T) is 2-3.

By pKd is commonly meant the Kd on a negative log10 scale, so that one unit is a factor of ten. Low readings indicate a high Kd, high ones a low Kd.
